# Test results reported in patent publication US20140249139A1, “Quinazoline Derivatives” (NOVARTIS AG, priority 2011, published 2014).
# How the values were obtained:
# PI3K delta = biological target: T1, PI3K delta (Homo sapiens, UniProt O00329); assay: Enzymatic PI3K delta isoform inhibition (lipid kinase activity, Kinase-Glo); format: biochemical; conditions: enzymatic assay
# T1 construct: for the full-length p110-d subunit are generated and fused by overlapping PCR; His tag (C); made in house; host or cells: baculovirus BV1060; Tn5 (Trichoplusia ni) or TiniPro insect cells
# Experimental: (§1) The components of the assay are added per well as follows:
# (§2) IC50 is determined by a four parameter curve fitting routine that comes along with “excel fit”.
# (§3) Yet alternatively, for an ATP depletion assay, compounds of the formula I to be tested are dissolved in DMSO and directly distributed into a white 384-well plate at 0.5 μl per well. To start the reaction, 10 μl of 10 nM PI3 kinase and 5 μg/ml 1-alpha-phosphatidylinositol (PI) are added into each well followed by 10 μl of 2 μM ATP. The reaction is performed until approx 50% of the ATP is depleted, and then stopped by the addition of 20 μl of Kinase-Glo solution (Promega Corp., Madison, Wis., USA). The stopped reaction is incubated for 5 minutes and the remaining ATP is then detected via luminescence. IC50 values are then determined.
# PI3K alpha = biological target: T2, PI3K alpha (Homo sapiens, UniProt P42336); assay: Enzymatic PI3K alpha isoform inhibition (lipid kinase activity, Kinase-Glo); format: biochemical; conditions: enzymatic assay
# T2 construct: for the p110-a subunit (with a deletion of the first 20 amino acids) are generated; His tag (C); made in house; host or cells: baculovirus BV1075; Tn5 (Trichoplusia ni) or TiniPro insect cells
# Experimental: as §1, §2, §3
# T2 sequence (P42336 with tags, fused parts or gaps limits assumed, species assumed): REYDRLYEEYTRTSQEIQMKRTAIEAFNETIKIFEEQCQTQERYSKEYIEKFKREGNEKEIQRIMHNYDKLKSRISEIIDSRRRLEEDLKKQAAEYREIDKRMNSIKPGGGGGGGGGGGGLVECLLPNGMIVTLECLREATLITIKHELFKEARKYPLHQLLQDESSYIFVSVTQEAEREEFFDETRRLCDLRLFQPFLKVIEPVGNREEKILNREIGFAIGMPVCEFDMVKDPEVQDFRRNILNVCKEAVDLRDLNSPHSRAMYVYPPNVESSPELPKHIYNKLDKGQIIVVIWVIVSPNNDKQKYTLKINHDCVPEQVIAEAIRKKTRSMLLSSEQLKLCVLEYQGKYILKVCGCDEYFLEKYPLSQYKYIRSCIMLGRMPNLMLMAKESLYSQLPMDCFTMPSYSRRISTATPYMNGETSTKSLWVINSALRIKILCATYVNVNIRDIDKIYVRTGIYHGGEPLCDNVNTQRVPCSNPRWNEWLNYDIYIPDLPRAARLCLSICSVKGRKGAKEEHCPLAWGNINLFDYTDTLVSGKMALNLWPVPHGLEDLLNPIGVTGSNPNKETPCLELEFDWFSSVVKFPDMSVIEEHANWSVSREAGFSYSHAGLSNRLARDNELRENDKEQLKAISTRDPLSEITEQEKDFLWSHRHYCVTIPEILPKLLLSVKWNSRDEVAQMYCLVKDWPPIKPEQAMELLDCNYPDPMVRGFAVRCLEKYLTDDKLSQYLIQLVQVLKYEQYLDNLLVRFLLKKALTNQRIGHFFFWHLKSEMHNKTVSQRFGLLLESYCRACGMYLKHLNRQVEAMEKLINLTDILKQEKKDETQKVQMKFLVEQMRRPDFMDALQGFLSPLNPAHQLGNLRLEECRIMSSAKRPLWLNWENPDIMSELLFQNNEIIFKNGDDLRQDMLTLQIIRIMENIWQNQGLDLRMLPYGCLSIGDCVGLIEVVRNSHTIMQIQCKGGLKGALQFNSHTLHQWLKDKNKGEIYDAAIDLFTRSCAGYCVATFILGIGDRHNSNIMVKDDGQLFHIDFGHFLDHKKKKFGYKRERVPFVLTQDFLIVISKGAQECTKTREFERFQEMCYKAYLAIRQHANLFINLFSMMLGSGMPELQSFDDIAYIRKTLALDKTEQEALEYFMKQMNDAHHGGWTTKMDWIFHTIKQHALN
# T1 sequence (O00329 with tags, fused parts or gaps limits assumed, species assumed): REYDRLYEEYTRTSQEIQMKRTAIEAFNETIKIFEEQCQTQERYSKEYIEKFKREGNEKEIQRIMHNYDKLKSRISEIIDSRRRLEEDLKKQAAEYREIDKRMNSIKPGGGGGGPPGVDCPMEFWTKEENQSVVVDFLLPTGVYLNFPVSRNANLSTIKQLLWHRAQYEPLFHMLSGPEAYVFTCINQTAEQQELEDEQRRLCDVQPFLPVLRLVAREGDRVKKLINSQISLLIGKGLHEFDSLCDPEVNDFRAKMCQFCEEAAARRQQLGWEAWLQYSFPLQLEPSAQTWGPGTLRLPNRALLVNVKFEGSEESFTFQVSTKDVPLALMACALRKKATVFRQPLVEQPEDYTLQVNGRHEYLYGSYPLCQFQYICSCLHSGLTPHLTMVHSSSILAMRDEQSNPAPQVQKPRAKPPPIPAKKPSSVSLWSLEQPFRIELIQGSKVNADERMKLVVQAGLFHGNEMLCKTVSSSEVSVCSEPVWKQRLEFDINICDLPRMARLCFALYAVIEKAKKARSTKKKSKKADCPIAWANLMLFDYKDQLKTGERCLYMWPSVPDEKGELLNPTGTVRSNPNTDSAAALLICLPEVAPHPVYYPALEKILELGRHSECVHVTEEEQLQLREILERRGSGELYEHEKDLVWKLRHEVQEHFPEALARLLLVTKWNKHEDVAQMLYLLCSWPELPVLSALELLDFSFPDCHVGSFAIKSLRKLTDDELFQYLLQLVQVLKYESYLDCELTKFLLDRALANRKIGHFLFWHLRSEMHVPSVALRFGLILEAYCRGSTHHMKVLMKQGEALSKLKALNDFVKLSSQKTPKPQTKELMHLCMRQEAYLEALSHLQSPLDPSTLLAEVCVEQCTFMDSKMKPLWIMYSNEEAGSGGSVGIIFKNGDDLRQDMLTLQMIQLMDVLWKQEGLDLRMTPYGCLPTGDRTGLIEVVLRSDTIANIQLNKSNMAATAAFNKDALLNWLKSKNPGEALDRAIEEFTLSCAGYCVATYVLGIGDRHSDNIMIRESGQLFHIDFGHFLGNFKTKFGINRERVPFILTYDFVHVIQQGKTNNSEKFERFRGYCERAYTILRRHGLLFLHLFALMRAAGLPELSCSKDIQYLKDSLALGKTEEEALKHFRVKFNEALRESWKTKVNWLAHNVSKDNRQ
Compound,IC50 (PI3K delta),IC50 (PI3K alpha)
"COc1ccc(-c2ccc3ncnc(-c4cc(C(=O)N5CCN(C(C)=O)CC5)cc(C(F)(F)F)c4)c3c2)cn1 [Example 101, 1-(4-{3-[6-(6-Methoxy-pyridin-3-yl)-quinazolin-4-yl]-5-trifluoromethyl-benzoyl}-piperazin-1-yl)-ethanone]",16 nM,1270 nM
"COc1ncc(-c2ccc3ncnc(-c4ccc(C)c(C(=O)N5CCN(C(C)=O)CC5)c4)c3c2)cn1 [Example 102, 1-(4-{5-[6-(2-Methoxy-pyrimidin-5-yl)-quinazolin-4-yl]-2-methyl-benzoyl}-piperazin-1-yl)-ethanone]",11 nM,770 nM
"COc1ncc(-c2ccc3ncnc(-c4cc(C(=O)N5CCN(C(C)=O)CC5)cc(C(F)(F)F)c4)c3c2)cc1C#N [Example 103, 5-{4-[3-(4-Acetyl-piperazine-1-carbonyl)-5-trifluoromethyl-phenyl]-quinazolin-6-yl}-2-methoxy-nicotinonitrile]",8 nM,2120 nM
"COc1cc(C(=O)N2CCN(C(C)=O)CC2)cc(-c2ncnc3ccc(-c4ccc(OC)nc4)cc23)c1 [Example 106, 1-(4-{3-Methoxy-5-[6-(6-methoxy-pyridin-3-yl)-quinazolin-4-yl]-benzoyl}-piperazin-1-yl)-ethanone]",5 nM,440 nM
"COc1ncc(-c2ccc3ncnc(-c4cc(F)cc(C(=O)N5CCN(C(C)=O)CC5)c4)c3c2)cn1 [Example 111, 1-(4-{3-Fluoro-5-[6-(2-methoxy-pyrimidin-5-yl)-quinazolin-4-yl]-benzoyl}-piperazin-1-yl)-ethanone]",10 nM,1360 nM
"COc1ncc(-c2ccc3ncnc(-c4ccnc(C(=O)N5CCN(C(C)=O)CC5)c4)c3c2)cc1C#N [Example 113, 5-{4-[2-(4-Acetyl-piperazine-1-carbonyl)-pyridin-4-yl]-quinazolin-6-yl}-2-methoxy-nicotinonitrile]",18 nM,979 nM

# Next, values leading:
IC50 (PI3K delta),IC50 (PI3K alpha),Compound
38 nM,3290 nM,"COc1ncc(-c2ccc3ncnc(-c4cc(C(=O)N5CCN(C(C)=O)CC5)cc(C(F)(F)F)c4)c3c2)cn1 [Example 104, 1-(4-{3-[6-(2-Methoxy-pyrimidin-5-yl)-quinazolin-4-yl]-5-trifluoromethyl-benzoyl}-piperazin-1-yl)-ethanone]"
7 nM,720 nM,"COc1cc(C(=O)N2CCN(C(C)=O)CC2)cc(-c2ncnc3ccc(-c4cnc(OC)c(C#N)c4)cc23)c1 [Example 105, 5-{4-[3-(4-Acetyl-piperazine-1-carbonyl)-5-methoxy-phenyl]-quinazolin-6-yl}-2-methoxy-nicotinonitrile]"
5 nM,716 nM,"COc1ccc(-c2ccc3ncnc(-c4cc(Cl)cc(C(=O)N5CCN(C(C)=O)CC5)c4)c3c2)cn1 [Example 107, 1-(4-{3-Chloro-5-[6-(6-methoxy-pyridin-3-yl)-quinazolin-4-yl]-benzoyl}-piperazin-1-yl)-ethanone]"
7 nM,158 nM,"COc1ccc(-c2ccc3ncnc(-c4cc(C)cc(C(=O)N5CCN(C(C)=O)CC5)c4)c3c2)cn1 [Example 108, 1-(4-{3-[6-(6-Methoxy-pyridin-3-yl)-quinazolin-4-yl]-5-methyl-benzoyl}-piperazin-1-yl)-ethanone]"
14 nM,435 nM,"COc1ncc(-c2ccc3ncnc(-c4cc(C)cc(C(=O)N5CCN(C(C)=O)CC5)c4)c3c2)cc1C#N [Example 109, 5-{4-[3-(4-Acetyl-piperazine-1-carbonyl)-5-methyl-phenyl]-quinazolin-6-yl}-2-methoxy-nicotinonitrile]"
49 nM,2320 nM,"COc1ncc(-c2ccc3ncnc(-c4ccnc(C(=O)N5CCN(C(C)=O)CC5)c4)c3c2)cn1 [Example 112, 1-(4-{4-[6-(2-Methoxy-pyrimidin-5-yl)-quinazolin-4-yl]-pyridine-2-carbonyl}-piperazin-1-yl)-ethanone]"
